Source: paper PMC7215935, “GM1 Oligosaccharide Crosses the Human Blood–Brain Barrier In Vitro by a Paracellular Route” (International Journal of Molecular Sciences, 2020)

What was measured:
[1] = cited from earlier work
hBLECs [2] = assay: Toxicity on hBLECs / monolayer integrity by LY permeability in combination with test substance; format: cell-based, human
Protocol: (§1) Prior to the experiments, in order to verify the hBLECs’ monolayer integrity and stability, the permeability parameters were verified as previously reported. Briefly, 1.5 mL Ringer–Hepes solution (RH) (150 mM NaCl, 5.2 mM KCl, 2.2 mM CaCl2, 0.2 mM MgCl26H2O, 6 mM NaHCO3, 5 mM HEPES, pH: 7.4) was added to empty wells of a 12-well plate. Filter insert containing confluent monolayers of hBLECs or not (control) were subsequently placed in the 12-well plate, filled with 0.5 mL RH buffer containing the fluorescent integrity marker LY (50 μM), and then placed on an orbital shaker (150 rpm, Heidolph Titramax 100) at 37 °C in a humidify atmosphere of 95% air/5% CO2. Every 20 min for 1 h, filter inserts were withdrawn from the receiver compartment and placed in the next one. To verify the quantity of LY, at the end of the experiments, aliquots from the donor solution were taken at the end of the experiments and the fluorescence was quantified using a quantification curve of LY as referee. At least three inserts with cells and three without cells were tested in each permeability measurement. The fluorescence was measured using a luminescence spectrometer (LS 50B, Perkin Elmer), using the following excitation/emission wavelength (nm) settings: 432/538. Pe parameters were calculated according to the formulas shown in the Supplementary Information (Equations (7)–(10)). In parallel, as positive control for breakdown of hBLECs, D-mannitol, was used at a concentration of 1.4 M. At this concentration, mannitol induces an osmotic shock, and thus an increase in paracellular permeability.
To evaluate the toxicity of GM1 and OligoGM1, the LY endothelial permeability (Pe) and apparent permeability (Papp) were considered for evaluation of hBLEC monolayer integrity after administration of compounds.
To examine the LY permeability, 1.5 mL of RH buffer was added to empty wells of a 12-well plate, then hBLEC filters were placed in the 12-well plate and filled with 0.5 mL RH buffer containing 50 μΜ LY plus OligoGM1 or GM1 at an appropriate test concentration (from 5 to 300 μΜ). The hBLEC inserts were moved every 20 min to a new RH-filled well up to 60 min. At the end of the incubation period, solutions were collected from apical and basolateral compartments, LY was quantified, and Papp was calculated as reported in the Supplementary Information (Equation (1)) and previously mentioned.

[3] = system: human brain-like endothelial cells (hBLECs); assay: Direct transport (apical to basolateral, A → B) across the hBLEC monolayer: Pe and Papp; format: in vitro ADME; conditions: for endothelial permeability Pe (A → B): after 60 min, hBLEC monolayer
Protocol: as §1
Transport experiments were carried out by adding tritium-labeled GM1 or OligoGM1 (1 × 10^6 dpm) to cold GM1 or OligoGM1, respectively, at different concentrations, as specified below.
To identify and quantify the GM1 or OligoGM1 molecules in every transport experiment, aliquots from apical A (5 μL) and basolateral B (200 μL) compartments were collected at indicated time points and combined with 5 mL of ULTIMA GOLD liquid (PerkinElmer), shaken, and counted for 20 min by liquid scintillation analyzer (TRI-CARB 2100TR, Packard). Resulting radioactivity measures were used to estimate the quantity of the molecules. Experiments were performed on an agitation plate at 37 °C (150 rpm, Heidolph Titramax 100) in a humidify atmosphere of 95% air/5% CO2. At least three inserts with cells were tested in each transport experiment for each condition.
To examine flux from apical to basolateral compartments (A → B), 1.5 mL RH buffer was added to empty wells of a 12-well plate. Following this, the hBLEC filter was placed in the same 12-well plate and filled with 0.5 mL RH buffer containing 1 × 10^6 dpm of tritiated [^3H]GM1 or [^3H]OligoGM1 plus 50 μM of cold GM1 or OligoGM1 (Figure S3b).
To establish the time dependence of the transport experiments, hBLEC inserts filled with OligoGM1 were transferred into a new receiver well plate filled with fresh RH buffer every 20 min up to 240 min. The hBLECs’ properties, integrity, and stability were maintained up to 240 min in the transport experiments with RH buffer in the upper and basolateral side (see [28] and Figure S4).
To establish the dose dependence in the transport experiments, 1 × 10^6 dpm of tritiated [^3H]OligoGM1 plus 5, 10, 50, 100, and 300 μM OligoGM1 solutions were prepared and employed as described above. The hBLECs inserts were transferred into a new RH-filled receiver well plate every 20 min up to 60 min. […]
To evaluate the possible active transport involvement, the transport of OligoGM1 from apical to basolateral (A → B) compartments was performed at 4 °C, with the aim of inhibiting the active transport mechanism at low temperature. […]

MRPs = assay: ABC transporter competition assay (Caco-2 pump out), CMFDA efflux; conditions: Caco-2 cells, positive control
Protocol: Briefly, Caco-2 cells in 96-well plates were washed once with RH buffer and incubated for 120 min with 10 µM R123 or for 15 min with 0.5 µM CMFDA. R123 and CMFD are substrates for the major efflux pumps expressed by BBB and intestine cells, i.e., P-gp/BCRP and MRPs, respectively. After the incubation period, Caco-2 cells were washed twice with RH buffer with or without test compounds (OligoGM1 at 10, 50, and 100 µM). The rate out (Kout) of Caco-2 cells for fluorescent dyes was monitored by fluorescence measurement (λex = 501 nm and λem = 538 nm for R123; λex = 485 nm and λem = 538 nm for CMFDA) using a microplate fluorescent reader (BioTek, H1, Vermont, Winooski). The amount of dye expelled from the cells was measured at 37 °C and every 5 min for one hour for R123 and every 2 min for 30 min for CMFDA. The rate out of the dye from cells was calculated as the slope of the curve of the cumulative amount of dye against the time (Kout = ∆pmol⁄∆t) and compared with the value in the presence of test compounds.

[4] = system: human brain-like endothelial cells (hBLECs); assay: Inverse transport (basolateral to apical, B → A) across hBLECs and efflux ratio; format: in vitro ADME
Protocol: For the inverse transport study (related to basolateral → apical flux, B → A), 1.5 mL of 1 × 10^6 dpm of tritiated [^3H]OligoGM1 plus 50 μM OligoGM1 in RH buffer were added to an empty well of a 12-well plate (Figure S3c). Every 20 min up to 60 min, the hBLEC filter filled with 0.5 mL RH buffer was removed and replaced with a new filter with fresh RH buffer.
The apparent permeability, efflux ratio, and endothelial permeability were calculated to estimate the absorption processes of drugs, to predict implication of active transport in the process of drugs absorption, and to more accurately appreciate the transport of a drug across an endothelial barrier, respectively. Detailed information on the equations used to calculate the permeability parameters are reported in the Supplementary Information. […]
where (∆Q/∆t) (μmol/sec) is the rate of permeation (quantity per second) of a molecule across the cell layer, C0 (μmol/cm3) is the donor compartment concentration at time zero and S (cm2) is the area of […]
In the transwell insert system there are two compartments and, analyzing the absorption of a substance, the apparent permeability index can be obtained for the apical to basolateral transport, Papp A → B, and for the inverse, basolateral to apical transport Papp B → A.
To define Papp (1), the Fick's law could be used, which describes the transport of substances through a semipermeable membrane. Given that the initial concentration of the solute in the donor compartment is much higher than the one in the receiver compartment (equal to 0 at t0), and assuming that the solute equally partitions in the two compartments, for small variation of C0, it is possible to integrate and simplify the Fick’s equation to obtain as follows: […]
where ∆Q/∆t corresponds to the amount of solute that crosses the membrane over time, D is the diffusion coefficient of the substance in water, S is the membrane surface, h its thickness and C0 is the concentration of the solute which approximates the initial concentration C0.
The equation (2) can be rewritten as: […]

hBLECs [5] = assay: Fate of OligoGM1 in hBLECs (cell-associated radioactivity); format: in vitro ADME, human
Protocol: The possible internalization of OligoGM1 in hBLECs was determined by measuring the radioactivity associated to the cells. Briefly, at the end of direct transport, apical and basolateral solutions were collected, hBLEC filters were washed with RH buffer, and cells were detached by trypsin and lysed with 1mM Na3VO4, 1 mM PMSF, 2% (v/v) aprotinin, and 1% (v/v) IP in cold PBS. At this point, the lysed cell solution was counted to measure the radioactivity. All the cell lysates were combined with 5 mL of ULTIMA GOLD liquid (PerkinElmer), shaken, and counted for 20 min by liquid scintillation analyzer (TRI-CARB 2100TR, Packard). The resulting dpm radioactivity measures were used to estimate the molecule quantity.

hBLECs [6] = assay: Metabolic integrity of OligoGM1 after hBLEC transport (HPTLC autoradiography); format: in vitro ADME, human; conditions: basolateral compartment, detection limit 15 dpm
From the text: Since OligoGM1 is tritium labeled at position 6 of the external galactose, any possible galactosidase activity present on the plasma membrane of hBLECs can result in external galactose removal, leading to loss of radioactivity from the penta-saccharide. Radiolabeled galactose may pass the BBB or may enter into the cells and be recycled for the biosynthesis of new glycans, so that the radioactivity found may correspond to the galactose or to any possible new glycan rather than to the original oligosaccharide.
Thus, to test the integrity of the OligoGM1 molecule after hBLEC crossing, OligoGM1 solution was prepared in RH buffer at a final concentration of 100 μM plus 1 × 10^6 dpm of tritium-labeled OligoGM1. For the apical–basolateral transport experiment, the hBLEC insert’s apical side was filled with 0.5 mL of the drug solution and placed on 1.5 mL RH buffer-filled well of a 12-well plate. After 60 min, the solution of the receiving compartment (about 1.5 mL) was collected and 200 μL were combined with 5 mL of ULTIMA GOLD liquid (PerkinElmer), shaken, and counted for 20 min by a liquid scintillation analyzer (TRI-CARB 2100TR, Packard).
To verify that the counted radioactivity indeed corresponded to [^3H]OligoGM1, 0.5 mL of receiving compartment solution was lyophilized and suspended in 0.5 mL of methanol. […]

[7] = 1.4 M, osmotic shock, positive control for leakage

## 6′-R-maltosyl-maltotrioside
[1]
  hydrodynamic radius (r): 8.7 Å

## OC[C@@H](O)[C@@H](O)[C@H](O)[C@H](O)CO [D-mannitol]
hBLECs [2]; [7]
  rise of LY Papp on co-incubation: 4 fold
  rise of LY Pe on co-incubation: 20 fold

## CCCCCCCCCCCCCC=CC(O)C(COC1OC(CO)C(OC2OC(CO)C(OC3OC(CO)C(O)C(OC4OC(CO)C(O)C(O)C4O)C3NC(C)=O)C(OC3(C(=O)O)CC(O)C(NC(C)=O)C(C(O)C(O)CO)O3)C2O)C(O)C1O)NC(=O)CCCCCCCCCCCCCCCCC (stereo not drawn) [GM1, β-Gal-(1-3)-β-GalNAc-(1-4)-[α-Neu5Ac-(2-3)]-β-Gal-(1-4)-β-Glc-(1-1)-Cer, reference compound]
[3]; 50 μM
  endothelial permeability Pe (A → B): 0.028 ± 0.007 ×10^−3 cm/min
hBLECs [2]; 10, 50, 100 and 300 μM with 50 μM LY, 60 min and over time (20, 40, 60 min)
  effect on LY Pe and Papp (toxicity to hBLECs): no variations of LY Pe and Papp were observed

## CN(C)C(=O)CCSC(SCCC(=O)O)c1cccc(/C=C/c2ccc3ccc(Cl)cc3n2)c1 (centres unmarked) [MK571, reference compound]
MRPs
  decrease of outgoing rate (Kout) of CMFDA: more than 30%

## OC[C@H]1O[C@H](OC[C@H]2O[C@H](OC[C@H]3O[C@H](O[C@]4(CO)O[C@H](CO)[C@@H](O)[C@@H]4O)[C@H](O)[C@@H](O)[C@@H]3O)[C@H](O)[C@@H](O)[C@H]2O)[C@H](O)[C@@H](O)[C@H]1O [stachyose]
[1]
  hydrodynamic radius (r): 6.5 Å

## Lucifer yellow [LY, reference compound]
[3]; 50 μM LY, hBLEC integrity check (Figure 2)
  apparent permeability Papp (A → B) of LY alone: 1.25 ± 0.123 ×10^−5 cm/s
[3]; 50 μM, 60 min, 4 °C (Figure 6d)
  Papp A>B at 4 °C: 1.04 ± 0.068 x 10^-5 cm/sec
[3]; 50 μM, 60 min, 37 °C, temperature experiment (Figure 6d)
  Papp A>B at 37 °C: 1.27 ± 0.072 x 10^-5 cm/sec
[3]; 50 μM
  endothelial permeability Pe (A → B): 0.65 ± 0.041 ×10^−3 cm/min
[4]; 50 μM in basolateral compartment, 60 min (Figure 7)
  Papp B>A: 1.59 ± 0.27 x 10^-5 cm/sec
[4]; 50 μM, 60 min, hBLECs
  Efflux Ratio (E) = Papp B>A / Papp A>B: 1.25
[1]
  hydrodynamic radius (r): 4.9 Å

## [6-^3H]β-Gal-(1-3)-β-GalNAc-(1-4)-[α-Neu5Ac-(2-3)]-β-Gal-(1-4)-β-Glc-Cer [[^3H]OligoGM1]
hBLECs [5]; 50 μM apical, 20, 40, 60, 240 min, cell lysate
  amount found within the cells (internalization): no detectable amount
hBLECs [5]; 50 μM apical, each time point 20, 40, 60, 240 min
  radioactivity associated with apical and basolateral solutions: about 99%
hBLECs [6]
  metabolic stability after hBLEC crossing: metabolically stable
